Test results reported in ChEMBL document CHEMBL1201862, “PubChem BioAssay data set” (2004).
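Compound exposure: 48 hours, 5 concentrations, 96-well plates. Abbreviation: GI50, concentration required for 50% inhibition of growth.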 The source made the active and inactive calls. Cut-off read from the data, not from the text of the source: active = GI50 up to about 1.1 µM and inactive = higher.

Key:
Test in all cases: inhibition of tumour cell growth, NCI panel, 48 h
COLO 205 = test system: COLO 205
MOLT-4 = test system: MOLT-4
NCI-H460 = test system: NCI-H460
NCI-H522 = test system: NCI-H522
LOX IMVI = test system: LOX IMVI
IGROV-1 = test system: IGROV-1
SK-MEL-2 = test system: SK-MEL-2
DMS-273 = test system: DMS-273
RXF 393 = test system: RXF 393
SK-MEL-28 = test system: SK-MEL-28
HL-60 = test system: HL-60
UACC-257 = test system: UACC-257
OVCAR-8 = test system: OVCAR-8
SK-OV-3 = test system: SK-OV-3
SNB-75 = test system: SNB-75
KM12 = test system: KM12
U-251 = test system: U-251
KM-20L2 = test system: KM-20L2
A498 = test system: A498
HT-29 = test system: HT-29
HCC 2998 = test system: HCC 2998
Malme-3M = test system: Malme-3M
A549 = test system: A549
SR = test system: SR
RXF 631 = test system: RXF 631
SW-620 = test system: SW-620
M19-MEL = test system: M19-MEL
SF-268 = test system: SF-268
ACHN = test system: ACHN
CAKI-1 = test system: CAKI-1
UO-31 = test system: UO-31
HOP-18 = test system: HOP-18
HCT-15 = test system: HCT-15
K562 = test system: K562
SN12C = test system: SN12C
SNB-19 = test system: SNB-19
OVCAR-4 = test system: OVCAR-4
UACC-62 = test system: UACC-62
DMS-114 = test system: DMS-114
NCI-H23 = test system: NCI-H23
LXFL 529 = test system: LXFL 529
OVCAR-3 = test system: OVCAR-3
M14 = test system: M14
SF-295 = test system: SF-295
EKVX = test system: EKVX
HOP-62 = test system: HOP-62
CCRF-CEM = test system: CCRF-CEM
OVCAR-5 = test system: OVCAR-5
786-0 = test system: 786-0
HCT-116 = test system: HCT-116
NCI-H226 = test system: NCI-H226
TK-10 = test system: TK-10
SK-MEL-5 = test system: SK-MEL-5

In the case of `COc1ccc2cccc(C(=N)c3ccc(C)c4c3CCC4)c2c1`, the GI50 (COLO 205) is reported as 11.9 µM (inactive), the GI50 (MOLT-4) is reported as 8.63 µM (inactive) and the GI50 (NCI-H460) is reported as 4.3 µM (inactive). For the same compound, the GI50 (NCI-H522) was 3.72 µM (inactive), the GI50 (LOX IMVI) was 11.7 µM (inactive) and the GI50 (IGROV-1) was 6.15 µM (inactive). For the same compound, the GI50 (SK-MEL-2) was 11.9 µM (inactive), the GI50 (DMS-273) was 9.4 µM (inactive) and the GI50 (RXF 393) was 12.8 µM (inactive). For the same compound, the GI50 (SK-MEL-28) was 13 µM (inactive), the GI50 (HL-60) was 2.67 µM (inactive) and the GI50 (UACC-257) was 4.89 µM (inactive). For the same compound, the GI50 (OVCAR-8) was 11.4 µM (inactive), the GI50 (SK-OV-3) was 14.5 µM (inactive) and the GI50 (SNB-75) was 11.8 µM (inactive). The GI50 (KM12) was 10.2 µM (inactive), the GI50 (U-251) was 9.57 µM (inactive) and the GI50 (KM-20L2) was 5.82 µM (inactive). The GI50 (A498) was 2.14 µM (inactive), the GI50 (HT-29) was 4.02 µM (inactive) and the GI50 (HCC 2998) was 10.8 µM (inactive). For the same compound, the GI50 (Malme-3M) was 3.62 µM (inactive), the GI50 (A549) was 13.7 µM (inactive) and the GI50 (SR) was 2.62 µM (inactive). For the same compound, the GI50 (RXF 631) was 1.37 µM (inactive), the GI50 (SW-620) was 5.38 µM (inactive) and the GI50 (M19-MEL) was 9.62 µM (inactive). The GI50 (SF-268) was 16.4 µM (inactive), the GI50 (ACHN) was 9.98 µM (inactive) and the GI50 (CAKI-1) was 3.95 µM (inactive). The GI50 (UO-31) was 4.45 µM (inactive), the GI50 (HOP-18) was 0.895 µM (active) and the GI50 (HCT-15) was 7.46 µM. The GI50 (K562) was 2.92 µM (inactive), the GI50 (SN12C) was 12 µM (inactive) and the GI50 (SNB-19) was 11.2 µM (inactive). The GI50 (OVCAR-4) was 12.2 µM (inactive), the GI50 (UACC-62) was 4.18 µM (inactive) and the GI50 (DMS-114) was 7.08 µM (inactive). For the same compound, the GI50 (NCI-H23) was 7.57 µM (inactive), the GI50 (LXFL 529) was 4.86 µM (inactive) and the GI50 (OVCAR-3) was 3.52 µM (inactive). For the same compound, the GI50 (M14) was 5.97 µM (inactive), the GI50 (SF-295) was 5.7 µM (inactive) and the GI50 (EKVX) was 15.5 µM (inactive). For the same compound, the GI50 (HOP-62) was 7.26 µM (inactive), the GI50 (CCRF-CEM) was 6.58 µM (inactive) and the GI50 (OVCAR-5) was 6.17 µM (inactive). For the same compound, the GI50 (786-0) was 10.2 µM (inactive), the GI50 (HCT-116) was 4.59 µM (inactive) and the GI50 (NCI-H226) was 12.2 µM (inactive). For the same compound, the GI50 (TK-10) was 11.6 µM (inactive) and the GI50 (SK-MEL-5) was 3.9 µM (inactive).
